“Also recorded” adds a separate entry of the source.
Columns and labels:
[1] = test system: astrocytes; settings: cited from earlier work
[2] = test system: cultured neurons; assay: Lysosphingolipid content of cultured neurons by NBDZF fluorescence tagging; format: cell-based, chick; settings: for lysosphingolipid content, 0 hours of incubation / lysosphingolipid content, 0.5 hours of incubation / lysosphingolipid content, 1.0 hours of incubation / lysosphingolipid content, 2.0 hours of incubation / lysosphingolipid content, 3.0 hours of incubation: Intact neurons, 10 μmolar exposure; for content of sphingosine in the neurons following exposure: exposure to 50 μM lysosphingolipid, 1 hour
From the text: Agonist-binding to metabotropic receptors influences the levels of lysosphingolipid in neuronal membranes. However, there is no convenient methodology available for the measurement of lysosphingolipid content in cultured neurons. As a result, a sensitive method of fluorometric tracing has been devised and is described herein. The measurement of lysosphingolipid content in cultured neurons is based on the stable fluorescence-tagging procedure using 4-fluoro, 7-nitrobenzofuran (NBDZF) described by Nozowa et al J. Neurochem. 59:607-609, 1992). The procedure was applied to: resting neurons; neurons exposed to 100 μM metabotropic receptor agonist for 1 hour; resting neurons exogenously enriched in lysosphingolipids; and neurons exogenously enriched in lysosphingolipids and exposed to metabotropic receptor agonist for 1 hour. The neurons were scraped in batches of 107 (1 Petri dish, approximately 8 cm in diameter, is equivalent to 2 mg membrane protein) and subjected to anaylsis.
Total lipids were removed from the neuron samples by repeated extraction with chloroforn:methanol (2:1, vol:vol). The lysosphingolipids were separated from total neuronal lipid in 90±5% recovery yield (n=10) by the stepped chromatographic procedure of Van Veldhoven et al. (Anal. Biochem. 183:177-189, 1989). The recovered lysosphingolipids were stably tagged with NBDZF by the rapid procedure of Nozowa et al. (supra). The fluorescence tagged neuronal lysosphingolipids were separated in parallel with reference standards NBDZF-Sph, NBDZF-Psy, and NBDZF-Lsm on high performance silica gel thin layer chromatography plates with acetonitrile:H2 O (10:0.5, vol:vol). The highly fluorescent, well separated bands were scraped from the plate. The fluorescence tagged lysosphingolipids are eluted from the scraped silica gel with methanol:1 N HCl (1:0.02, vol:vol). The fluorescence tagged lysosphingolipid eluates were quantitated against reference standards by fluorescence measurement in a Perkin-Elmer LS-5 Fluorescence Spectrometer.
Sphingolipid content of neurons exposed to sphingosine, lysocerebroside, and lysosphingomyelin was examined as follows. A Petri dish containing approximately 107 neurons was incubated with 5 μCi [^3 H]myo-Ins in 3 ml DMEM overnight to prelabel the phosphoinositide InsP3 may contain. The neurons were washed with PBS and 3 ml of PBS containing 4.5 g/l glucose was added. Preparations of sphingosine, lysocerebroside, lysosphingomyelin (Sigma Chemical Co., St. Louis, Mo.) and combinations of each were prepared as the hydrochloride salt dissolved in PBS. The lysosphingolipids were added to the Petri dishes to produce a concentration ranging from 0-150 μM. […] Trypsinization removes non-specifically bound lysosphingolipids that may adhere to extracellular plasma membrane protein domain s. Non-specific adherence between cationic micelles of lysosphingolipids and the neuronal glycocatyx avoided by performing the experiments with lysosphingolipid concentrations below the critical micelle concentration. Neurons were analyzed for lysosphingolipid content as described above.

[3] = test system: calcium ion signalling in cortical neurons; assay: Metabotropic receptor function: calcium ion signalling (fura 2) in intact cortical neurons; format: cell-based, chick; settings: neurons loaded to 150±20 pmoles per mg protein; 10 μM glutamate agonist 30 minutes
Method: Metabotropic receptor function was examined in intact neurons by assaying lysosphingolipid modulation of calcium ion signalling. Approximately 1×10^6 cortical neurons were cultured on rectangular L-polylysine-coated coverslips and loaded with lysocerebroside or lysosphingomyelin to a level of 150±20 pmoles per mg protein. The neurons were returned to complete Ham's high glucose medium/DMEM (1:1, vol:vol) and infiltrated with 5 μM fura 2/AM (Molecular Probes, Eugene, Oreg.). Fura 2 is a calcium chelator whose fluorescence absorbance shifts to shorter wavelength upon calcium ion binding is measurable in intact cells. A change in intraneuronal calcium ion concentration was monitored as a change in the fluorescence spectrum.
The neurons were exposed to 10 μM glutamate agonist (for example, ibotenate) for 30 minutes at 37° C. The coverslips were then transferred to quartz cuvettes in medium containing 250 μM sulfinpyrazone to prevent fura 2/AM diffusion. Fluorescence ratios were recorded in a Perkin-Elmer LS-5 Fluorescence Spectrometer thermostatted at 37° C. at excitation wavelengths of 340 and 380 nm, a nd emission measurement at 500 nm. Calcium ion signalling in agonist-stimulated neurons was 3.0±0.2 arbitrary units for ibotenate-exposed neurons.

[4] = test system: hippocampal neurons; assay: Histological analysis of brain 7 days after ICV infusion (cresyl violet); format: in vivo, male F344 rats; settings: for HISTOLOGICAL CHANGES: rat
Method: Before administering various compounds, the animals were anesthetized with sodium pentobarbital (50 mg/kg, i.p.) and positioned in a sterotaxic instrument. A 26 gauge cannula was inserted into the cerebral ventricle at the following co-ordinates: 1.0 mm posterior to bregma, 1.5 mm lateral to the midline, and 4.0 mm below the dorsal surface of the neocortex. Cannulas were capped and fixed in place with dental cement. One week after cannulation, 10 μl of each of the treatment drugs was infused, ICV (i.e. into the ventricals of the brain), via a micropump at a rate of 10 μl/min. For this procedure, the animals were lightly restrained and unanesthetized. Following administration of the compound, the infusion cannula remained in position for one minute, after which the permanent in situ cannula was capped.
Seven days after the compounds were administered, animals were sacrificed by transcardial perfusion with neutralized, buffered 10% formalin-saline. Their brains were removed, post-fixed overnight in 10% formalin-saline, and sectioned along the coronal plane (into 50 μm thick sections) on a freezing microtome. The sections were stained with cresyl violet to determine the extent of cellular destruction. […]
Given that high concentrations of metabotropic receptors are located in the hippocampus, and that the hippocampus is particularly vulnerable to the effects of a variety of insults including ischemia and hypoxia, this region was examined for evidence of neuronal degeneration due to glutamate excitotoxicity.

| Structure (SMILES) | InsP3 production in astrocytes [1] | lysosphingolipid content, 0 hours of incubation [2] | lysosphingolipid content, 0.5 hours of incubation [2] | lysosphingolipid content, 1.0 hours of incubation [2] | lysosphingolipid content, 2.0 hours of incubation [2] | lysosphingolipid content, 3.0 hours of incubation [2] | content of sphingosine in the neurons following exposure [2] | agonist-elicited calcium signalling in lysosphingolipid-loaded neurons [3] | neuronal loss (CA1 pyramidal neurons, hippocampus) caused by quisqualate ([4]; pretreatment with psychosine 125 nmoles, quisqualate 225 nmoles ICV, 7 days) | HISTOLOGICAL CHANGES ([4]; Quisqualate 100 nmoles ICV) | HISTOLOGICAL CHANGES ([4]; Quisqualate 150 nmoles ICV) | HISTOLOGICAL CHANGES ([4]; Quisqualate 225 nmoles ICV, seven days after application) | HISTOLOGICAL CHANGES ([4]; Quisqualate 225 nmoles ICV, seven days after application, listed as quisqualate) | HISTOLOGICAL CHANGES ([4]; Quisqualate 250 nmoles ICV, seven days after application, listed as quisqualate) | HISTOLOGICAL CHANGES ([4]; Quisqualate 500 μmoles ICV) |
| --- | --- | --- | --- | --- | --- | --- | --- | --- | --- | --- | --- | --- | --- | --- | --- |
| CCCCCCCCCCCCC/C=C/[C@@H](O)[C@@H](N)CO [sphingosine] | enhanced | 85 ± 15 pmoles lysosphingolipid/mg pla | 85 ± 20 pmoles lysosphingolipid/mg pla | 110 ± 15 pmoles lysosphingolipid/mg pla | 105 ± 5 pmoles lysosphingolipid/mg pla | 115 ± 15 pmoles lysosphingolipid/mg pla | 430±70 pmoles/mg protein | – | – | – | – | – | – | – | – |
| CCCCCCCCCCCCC/C=C/[C@@H](O)[C@@H](N)COP(=O)([O-])OCC[N+](C)(C)C [lysosphingomyelin, sphingosyl phosphoryicholine] | – | – | – | – | – | – | – | no calcium signalling measurably over controls | – | – | – | – | – | – | – |
| CCCCCCCCCCCCC/C=C/[C@@H](O)[C@@H](N)CO[C@@H]1O[C@H](CO)[C@H](O)[C@H](O)[C@H]1O [psychosine, lysocerebroside] | inhibited | 25 ± 5 pmoles lysosphingolipid/mg pla | 35 ± 15 pmoles lysosphingolipid/mg pla | 45 ± 10 pmoles lysosphingolipid/mg pla | 80 ± 5 pmoles lysosphingolipid/mg pla | 80 ± 5 pmoles lysosphingolipid/mg pla | 220±45 pmoles/mg protein | no calcium signalling measurably over controls | prevents the neuronal loss caused by quisqualate | – | – | – | – | – | – |
| N[C@@H](Cn1oc(=O)[nH]c1=O)C(=O)O [Quisqualate, quisqualate] | – | – | – | – | – | – | – | – | – | none observed | none observed | loss of CA1 | severe loss of neurons in the hippocampus; also recorded: considerable loss of CA1 pyramidal neurons in the hippocampus | severe loss of neurons in the hippocampus | loss of neurons |

From US6083920A, “Compositions for modulating intracellular inositol trisphosphate concentration” (priority 1996, dated 2000)
